One block for each compound: values may come before it.
Experiments:
[1] = system: Human immunodeficiency virus 1; assay: (§1) Antiviral activity against HIV-1 NL4-3 infected in human TZM-bl cells infected with supernatants from virus-infected human H9 cells treated with compound for 72 hrs assessed as reduction in luciferase expression measured after 48 hrs by luciferase reporter gene assay based BiCycle assay; format: functional, organism-based; conditions: Human immunodeficiency virus 1, NL4-3
[2] = biological target: ATP-dependent RNA helicase DDX3X (Homo sapiens, UniProt O00571); assay: Inhibition of human DDX3X using dsRNA as substrate measured every 30 sec for 40 mins by FRET assay
Chain of ATP-dependent RNA helicase DDX3X (O00571 whole entry): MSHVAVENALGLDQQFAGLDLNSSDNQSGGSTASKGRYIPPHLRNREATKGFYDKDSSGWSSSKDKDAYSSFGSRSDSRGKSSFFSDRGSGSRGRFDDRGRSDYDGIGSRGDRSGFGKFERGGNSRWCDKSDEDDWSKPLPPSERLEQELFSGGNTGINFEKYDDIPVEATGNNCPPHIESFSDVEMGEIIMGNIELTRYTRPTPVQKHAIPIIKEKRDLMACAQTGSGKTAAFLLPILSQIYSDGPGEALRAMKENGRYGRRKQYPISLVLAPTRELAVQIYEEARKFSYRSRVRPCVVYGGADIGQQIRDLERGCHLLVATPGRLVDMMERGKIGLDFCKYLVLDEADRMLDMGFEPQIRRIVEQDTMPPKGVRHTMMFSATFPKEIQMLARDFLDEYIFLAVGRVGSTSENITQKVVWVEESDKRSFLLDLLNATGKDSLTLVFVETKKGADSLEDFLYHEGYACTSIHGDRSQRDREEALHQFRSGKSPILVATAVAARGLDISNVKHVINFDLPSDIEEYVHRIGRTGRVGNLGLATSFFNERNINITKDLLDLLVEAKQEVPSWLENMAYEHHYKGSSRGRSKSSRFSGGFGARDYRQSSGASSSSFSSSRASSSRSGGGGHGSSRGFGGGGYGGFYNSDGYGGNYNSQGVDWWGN

[3] = Apparent permeability of compound incubated for 5 hrs by PAMPA assay; format: ADME
[4] = Metabolic stability in human liver microsomes assessed as parent compound remaining measured after 60 mins by LC-UV-MS analysis; format: ADME, Microsome; conditions: read-out: Stabilty
[5] = system: Human immunodeficiency virus 1; assay: as §1, with “11808 harboring protease V32I/I54V/I84V/L90M mutant” for “NL4-3”; format: functional, organism-based; conditions: Human immunodeficiency virus 1, 11808
[6] = system: Human immunodeficiency virus 1; assay: as §1, with “7400 harboring nucleos(t)ide reverse transcriptase M41L/E44D/D67N/T69D/M184VL210W/T215Y mutant” for “NL4-3”; format: functional, organism-based; conditions: Human immunodeficiency virus 1, 7400
[7] = system: Human immunodeficiency virus 1; assay: as §1, with “11847 harboring integrase G140S/Q148H mutant” for “NL4-3”; format: functional, organism-based; conditions: Human immunodeficiency virus 1, 11847
[8] = system: Human immunodeficiency virus 1; assay: as §1, with “12231 harboring non-nucleoside reverse transcriptase K103N/V179F/Y181C mutant” for “NL4-3”; format: functional, organism-based; conditions: Human immunodeficiency virus 1, 12231
[9] = (§2) Selectivity index, ratio of IC50 for antiviral activity against HIV-1 11808 harboring protease V32I/I54V/I84V/L90M mutant infected in human TZM-bl cells infected with supernatants from virus-infected human H9 cells to IC50 for antiviral activity against HIV-1 […] infected in human TZM-bl cells infected with supernatants from virus-infected human H9 cells; format: functional, Human immunodeficiency virus 1
[10] = as §2, with “7400” for “11808”, “nucleos(t)ide reverse transcriptase M41L/E44D/D67N/T69D/M184VL210W/T215Y” for “protease V32I/I54V/I84V/L90M”; format: functional, Human immunodeficiency virus 1
[11] = as §2, with “11847” for “11808”, “integrase G140S/Q148H” for “protease V32I/I54V/I84V/L90M”; format: functional, Human immunodeficiency virus 1
[12] = as §2, with “12231” for “11808”, “non-nucleoside reverse transcriptase K103N/V179F/Y181C” for “protease V32I/I54V/I84V/L90M”; format: functional, Human immunodeficiency virus 1
[13] = Half life in BALB/c mouse at 8 mg/kg, iv measured upto 24 hrs by HPLC-MS analysis; format: ADME, organism-based; conditions: in vivo
[14] = Cmax in BALB/c mouse at 8 mg/kg, iv measured upto 24 hrs by HPLC-MS analysis; format: ADME, organism-based; set-up: route intravenous, dose 8 mg/kg, time <=24; conditions: in vivo
[15] = AUC (0 to t) in BALB/c mouse at 8 mg/kg, iv measured upto 24 hrs by HPLC-MS analysis; format: ADME, organism-based; set-up: route intravenous, dose 8 mg/kg, time <=24; conditions: in vivo
[16] = Observed AUC (0 to infinity) in BALB/c mouse at 8 mg/kg, iv measured upto 24 hrs by HPLC-MS analysis; format: ADME, organism-based; set-up: route intravenous, dose 8 mg/kg, time <=24; conditions: in vivo
[17] = Observed volume of distribution at steady state in BALB/c mouse at 8 mg/kg, iv measured upto 24 hrs by HPLC-MS analysis; format: ADME, organism-based; conditions: in vivo, read-out: Vdss
[18] = Observed clearance in BALB/c mouse at 8 mg/kg, iv measured upto 24 hrs by HPLC-MS analysis; format: ADME, organism-based; conditions: in vivo
[19] = Half life in BALB/c mouse at 16 mg/kg, iv measured upto 24 hrs by HPLC-MS analysis; format: ADME, organism-based; conditions: in vivo
[20] = Cmax in BALB/c mouse at 16 mg/kg, iv measured upto 24 hrs by HPLC-MS analysis; format: ADME, organism-based; set-up: route intravenous, dose 16 mg/kg, time <=24; conditions: in vivo
[21] = AUC (0 to t) in BALB/c mouse at 16 mg/kg, iv measured upto 24 hrs by HPLC-MS analysis; format: ADME, organism-based; set-up: route intravenous, dose 16 mg/kg, time <=24; conditions: in vivo
[22] = Observed AUC (0 to infinity) in BALB/c mouse at 16 mg/kg, iv measured upto 24 hrs by HPLC-MS analysis; format: ADME, organism-based; set-up: route intravenous, dose 16 mg/kg, time <=24; conditions: in vivo
[23] = Observed volume of distribution at steady state in BALB/c mouse at 16 mg/kg, iv measured upto 24 hrs by HPLC-MS analysis; format: ADME, organism-based; conditions: in vivo, read-out: Vdss
[24] = Observed clearance in BALB/c mouse at 16 mg/kg, iv measured upto 24 hrs by HPLC-MS analysis; format: ADME, organism-based; conditions: in vivo
[25] = Half life in BALB/c mouse at 32 mg/kg, iv measured upto 24 hrs by HPLC-MS analysis; format: ADME, organism-based; conditions: in vivo
[26] = Cmax in BALB/c mouse at 32 mg/kg, iv measured upto 24 hrs by HPLC-MS analysis; format: ADME, organism-based; set-up: route intravenous, dose 32 mg/kg, time <=24; conditions: in vivo
[27] = AUC (0 to t) in BALB/c mouse at 32 mg/kg, iv measured upto 24 hrs by HPLC-MS analysis; format: ADME, organism-based; set-up: route intravenous, dose 32 mg/kg, time <=24; conditions: in vivo
[28] = Observed AUC (0 to infinity) in BALB/c mouse at 32 mg/kg, iv measured upto 24 hrs by HPLC-MS analysis; format: ADME, organism-based; set-up: route intravenous, dose 32 mg/kg, time <=24; conditions: in vivo
[29] = Tmax in BALB/c mouse at 16 to 32 mg/kg, iv measured upto 24 hrs; format: ADME, organism-based; conditions: in vivo, dose 16-32 mg/kg
[30] = Drug excretion in BALB/c mouse at 16 to 32 mg/kg, iv measured upto 24 hrs; format: ADME, organism-based; conditions: in vivo, dose 16-32 mg/kg, read-out: Drug excretion
[31] = Drug uptake in BALB/c mouse brain at 16 to 32 mg/kg, iv measured upto 24 hrs; format: ADME, organism-based; conditions: in vivo, dose 16-32 mg/kg
[32] = Drug uptake in BALB/c mouse spleen at 16 to 32 mg/kg, iv measured upto 24 hrs; format: ADME, organism-based; conditions: in vivo, dose 16-32 mg/kg
[33] = Plasma concentration in BALB/c mouse at 16 to 32 mg/kg, iv measured after 240 mins; format: ADME, organism-based; conditions: dose 16-32 mg/kg
[34] = Plasma concentration in BALB/c mouse at 16 to 32 mg/kg, iv measured after 24 hrs; format: ADME, organism-based; conditions: dose 16-32 mg/kg
[35] = Toxicity in BALB/c mouse assessed as reduction in body weight at 32 mg/kg, iv administered three times a week for 3 weeks; format: organism-based; conditions: in vivo, 504 h
[36] = Toxicity in BALB/c mouse assessed as organism death at 32 mg/kg, iv administered three times a week for 3 weeks; format: organism-based; conditions: in vivo, 504 h
[37] = Toxicity in BALB/c mouse assessed as effect on liver at 32 mg/kg, iv administered three times a week for 3 weeks by hematoxylin and eosin staining based microscopic imaging analysis; format: organism-based; conditions: in vivo, 504 h
[38] = Toxicity in BALB/c mouse assessed as effect on kidney at 32 mg/kg, iv administered three times a week for 3 weeks by hematoxylin and eosin staining based microscopic imaging analysis; format: organism-based; conditions: in vivo, 504 h
[39] = Toxicity in BALB/c mouse assessed as effect on brain at 32 mg/kg, iv administered three times a week for 3 weeks by hematoxylin and eosin staining based microscopic imaging analysis; format: organism-based; conditions: in vivo, 504 h

Compound: O=C(Nc1ccc(-n2cc(CCO)nn2)cc1)Nc1ccccc1C(F)(F)F
- IC50 [1]: > 50000 nM
- IC50 ([2]; read-out: IC50): 11200 nM

Compound: Cc1ccccc1NC(=O)Nc1ccc(-n2cc(CCN3CCOCC3)nn2)cc1
- IC50 ([2]; read-out: IC50): 59700 nM

Compound: CCCCc1cn(-c2ccc(NC(=O)Nc3cc(OC4CCOC4)ccc3C)cc2)nn1 (centres undefined)
- IC50 [1]: 2600 nM
- IC50 ([2]; read-out: IC50): 100 nM

Compound: CC(C)CC(=O)OCCc1cn(-c2ccc(NC(=O)Nc3ccccc3C(F)(F)F)cc2)nn1
- IC50 [1]: > 50000 nM
- Papp at 5 h [3]: 4.24 ×10⁻⁶ cm/s
- remaining at 1 h [4]: 49.3%

Compound: CCCCc1cn(-c2ccc(NC(=O)Nc3cccc4cnccc34)cc2)nn1
- IC50 [1]: 2200 nM
- IC50 ([2]; read-out: IC50): 150 nM
- Papp at 5 h [3]: < 0.1 ×10⁻⁶ cm/s
- remaining at 1 h [4]: 95.2%

Compound: Cc1ccccc1NC(=O)Nc1ccc(-n2cc(CCCN3CCOCC3)nn2)cc1
- IC50 ([2]; read-out: IC50): 53800 nM

Compound: CCOC(=O)CCc1cn(-c2ccc(NC(=O)Nc3ccccc3C(F)(F)F)cc2)nn1
- IC50 [1]: > 50000 nM
- IC50 ([2]; read-out: IC50): 2020 nM
- Papp at 5 h [3]: 1.56 ×10⁻⁶ cm/s
- remaining at 1 h [4]: 16.9%

Compound: CCOP(=O)(OCC)OCCc1cn(-c2ccc(NC(=O)Nc3ccccc3C)cc2)nn1
- IC50 [1]: > 50000 nM
- Papp at 5 h [3]: 0.72 ×10⁻⁶ cm/s
- remaining at 1 h [4]: 53.7%

Compound: CCCCc1cn(-c2ccc(NC(=O)Nc3cc(OP(=O)(OCC)OCC)ccc3C)cc2)nn1
- IC50 [1]: 5500 nM
- IC50 ([2]; read-out: IC50): 940 nM
- Papp at 5 h [3]: 0.68 ×10⁻⁶ cm/s
- remaining at 1 h [4]: 85.2%

Compound: CCCCc1cn(-c2ccc(NC(=O)Nc3cc(O[C@H]4O[C@@H](CO)[C@H](O)[C@@H]4O)ccc3C)cc2)nn1
- IC50 [1]: > 50000 nM
- IC50 [2]: Not Active

Compound: O=C(Nc1ccc(-n2cc(CCO[C@H]3O[C@@H](CO)[C@H](O)[C@@H]3O)nn2)cc1)Nc1ccccc1C(F)(F)F
- IC50 [2]: Not Active

Compound: CC(C)CCc1cn(-c2ccc(NC(=O)Nc3cccc4cnccc34)cc2)nn1
- IC50 [1]: 2100 nM
- IC50 ([2]; read-out: IC50): 120 nM
- IC50 [5]: 2300 nM
- IC50 [6]: 1800 nM
- IC50 [7]: 1500 nM
- IC50 [8]: 1800 nM
- Ratio IC50 [9]: 1.1
- Ratio IC50 [10]: 0.8
- Ratio IC50 [11]: 0.7
- Ratio IC50 [12]: 0.8
- Papp at 5 h [3]: 0.18 ×10⁻⁶ cm/s
- remaining at 1 h [4]: 89.7%
- half-life [13]: 8.97 h
- Cmax [14]: 5500 ng/mL
- AUC(0-t) at 24 h [15]: 25600 ng·h/mL
- AUC(0-inf) [16]: 30700 ng·h/mL
- Vd [17]: 3.4 L/kg
- clearance [18]: 4.3 mL/min/kg
- half-life [19]: 7.76 h
- Cmax [20]: 15800 ng/mL
- AUC(0-t) at 24 h [21]: 23700 ng·h/mL
- AUC(0-inf) [22]: 25700 ng·h/mL
- Vd [23]: 7 L/kg
- clearance [24]: 8 mL/min/kg
- t1/2 [25]: 4.682 h
- Cmax [26]: 44400 ng/mL
- AUC(0-t) at 24 h [27]: 98500 ng·h/mL
- AUC [28]: 6114.4 µg·min/mL
- Tmax [29]: 1 h
- dose excreted at 24 h [30]: 100%
- Drug uptake [31]: Not Active
- Drug uptake [32]: Active
- concentration at 4 h [33]: 10 µM
- concentration at 24 h [34]: 2 µM
- Activity [35]: Non-Toxic
- Activity [36]: Non-Toxic
- Activity [37]: Non-Toxic
- Activity [38]: Non-Toxic
- Activity [39]: Non-Toxic

Compound: Cc1ccccc1NC(=O)Nc1ccc(-n2cc(CN3CCOCC3)nn2)cc1
- IC50 [2]: Not Active

Now from value to compound:

- IC50 [1]: 1110 nM
Compound: CCCCc1cn(-c2ccc(NC(=O)Nc3ccccc3C)cc2)nn1

- IC50 ([2]; read-out: IC50): 490 nM
Compound: CCCCc1cn(-c2ccc(NC(=O)Nc3cc(O)ccc3C)cc2)nn1

- IC50 ([2]; read-out: IC50): 2490 nM
Compound: CCCCc1cn(-c2ccc(NC(=O)Nc3cc(CCC(C)=O)ccc3C)cc2)nn1

- IC50 [1]: 200 nM
- IC50 ([2]; read-out: IC50): 140 nM
- Papp at 5 h [3]: 1.96 ×10⁻⁶ cm/s
- remaining at 1 h [4]: 92.5%
Compound: CCCCc1cn(-c2ccc(NC(=O)Nc3cc(OC4CCCC4)ccc3C)cc2)nn1

- IC50 ([2]; read-out: IC50): 13000 nM
Compound: Cc1ccccc1NC(=O)Nc1ccc(-n2cc(CCO)nn2)cc1

- IC50 ([2]; read-out: IC50): 820 nM
Compound: CCCCc1cn(-c2ccc(NC(=O)Nc3cc(OCOC)ccc3C)cc2)nn1

- IC50 [1]: 3800 nM
- IC50 ([2]; read-out: IC50): 1510 nM
Compound: CCOCc1cn(-c2ccc(NC(=O)Nc3cc(C(C)C)ccc3C)cc2)nn1

- remaining at 1 h [4]: 94.2%
Compound: COCCc1cn(-c2ccc(NC(=O)Nc3ccccc3C)cc2)nn1

Source: ChEMBL document CHEMBL4680261, “DDX3X inhibitors, an effective way to overcome HIV-1 resistance targeting host proteins” (Eur J Med Chem, 2020)
